The supplement of paper PMC8633005

Key:
[1] = system: FM-MEL-2; details: 72 h
Description: (§1)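 Validation dose-response testing of selected drugs on NRAS-mutant melanoma patient-derived cells, run in 2D culture and in 3D spheroids (ultra-low attachment plates), in triplicate per concentration. Viability was read by CellTiter-Glo after 72 h. EC50 came from Breeze curve fitting, and DSS was calculated from the curve.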

[2] = system: FM-MEL-3; details: 72 h
Description: as §1

[3] = system: FM-MEL-6; details: 72 h
Description: as §1

[4] = system: FM-MEL-2; assay: drug sensitivity score (DSS) (DSS (unitless)); higher = more sensitive; details: 72 h
Description: as §1

[5] = system: FM-MEL-3; assay: as above; details: 72 h
Description: as §1

[6] = system: FM-MEL-6; assay: as above; details: 72 h
Description: as §1

[7] = system: Bowes; assay: drug sensitivity score (DSS) (DSS (unitless, 0-50 scale)); higher = more sensitive (stronger viability inhibition); extreme values may be limits of the assay; details: 72 h; culture: 2D
Outline: (§2)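 Viability was measured by CellTiter-Glo luminescence after 72 h at 37 °C in 384-well plates holding a 527-compound oncology library, with patient-derived melanoma cultures (1000–1500 cells per well) and melanoma cell lines grown in 2D. Every compound was tested at five concentrations spanning a 10,000-fold range. The drug sensitivity score, a modified area under the curve, came from dose-response curves fitted with in-house Breeze software.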

[8] = system: FM-MEL-2; assay: as above; details: 72 h; culture: 2D
Outline: as §2

[9] = system: FM-MEL-3; assay: as above; details: 72 h; culture: 2D
Outline: as §2

[10] = system: FM-MEL-6; assay: as above; details: 72 h; culture: 2D
Outline: as §2

[11] = system: SK-MEL-28; assay: as above; details: 72 h; culture: 2D
Outline: as §2

[12] = system: SK-MEL-2; assay: as above; details: 72 h; culture: 2D
Outline: as §2

[13] = system: WM165; assay: as above; details: 72 h; culture: 2D
Outline: as §2

[14] = system: WM852; assay: as above; details: 72 h; culture: 2D
Outline: as §2

SMILES	EC50 (cell viability) ([1]; culture: 2D)	EC50 (cell viability) ([1]; culture: 3D spheroid)	EC50 (cell viability) ([2]; culture: 2D)	EC50 (cell viability) ([2]; culture: 3D spheroid)	EC50 (cell viability) ([3]; culture: 2D)	EC50 (cell viability) ([3]; culture: 3D spheroid)	drug sensitivity score ([4]; culture: 2D)	drug sensitivity score ([4]; culture: 3D spheroid)	drug sensitivity score ([5]; culture: 2D)	drug sensitivity score ([5]; culture: 3D spheroid)	drug sensitivity score ([6]; culture: 2D)	drug sensitivity score ([6]; culture: 3D spheroid)	drug sensitivity score [7]	drug sensitivity score [8]	drug sensitivity score [9]	drug sensitivity score [10]	drug sensitivity score [11]	drug sensitivity score [12]	drug sensitivity score [13]	drug sensitivity score [14]
CNc1ncc2cc(-c3cc(NC(=O)NCCC(C)(C)C)c(F)cc3C)c(C)nc2n1	59.3 nM	59.8 nM	83.3 nM	64.9 nM	187 nM	97.3 nM	20.6	20.8	24.5	26.6	11.3	16.9	7.4	19.9	25.4	14.4	20.3	15.2	25.4	10.2
O=C(Nc1ccc2[nH]nc(-c3ccncc3)c2c1)[C@@H]1CCN(CC(=O)N2CCN(c3ccc(-c4ncccn4)cc3)CC2)C1	206 nM	54.5 nM	97.1 nM	69 nM	210 nM	120 nM	17.7	25	22.5	26.2	11.2	17.2	1.3	20.8	22.8	12.7	21.8	15.6	21.2	8.2
C=CCn1c(=O)c2cnc(Nc3ccc(N4CCN(C)CC4)cc3)nc2n1-c1cccc(C(C)(C)O)n1 [AZD1775]	378 nM	364 nM	242 nM	257 nM	1800 nM	> 10000 nM	5.8	4.5	14	15.6	1.7	0	15.2	7.6	12.8	12.5	4.3	11.3	13.1	14.5
COc1ccc(-c2ccc3c(N4CCOC[C@@H]4C)nc(N4CCOC[C@@H]4C)nc3n2)cc1CO [AZD8055]	60.6 nM	54.1 nM	72.8 nM	50.7 nM	94.2 nM	66.2 nM	18.2	18.1	20.3	26.2	11.3	13.4	20.1	15.6	14.2	17.3	16.4	13.9	21.7	15
Cn1cnc2c(F)c(Nc3ccc(Br)cc3F)c(C(=O)NOCCO)cc21 [Binimetinib]	40.3 nM	28.8 nM	7.2 nM	10.1 nM	34.3 nM	15.7 nM	11	12.9	19.5	21.1	9.4	15.7	0	8.7	13.7	7.7	8.8	6.3	9.5	0.4
O=C(c1ccc(F)c(F)c1Nc1ccc(I)cc1F)N1CC(O)([C@@H]2CCCCN2)C1 [Cobimetinib]	5.7 nM	4 nM	12.5 nM	6.2 nM	28.1 nM	8.1 nM	20.2	21.8	20.7	26.6	10.4	19.5	0.3	15.5	20.7	9.4	21.3	11.5	21.3	4.3
Cn1c(=O)n(-c2ccc(C(C)(C)C#N)cc2)c2c3cc(-c4cnc5ccccc5c4)ccc3ncc21 [Dactolisib]	15.2 nM	12.1 nM	22.6 nM	7.4 nM	26.9 nM	13.1 nM	13.5	14.6	13.7	22.9	7.4	10.1	12.8	12.5	15.1	15.1	13.5	9.9	17.6	10.7
CC(C)NC(=O)COc1cccc(-c2nc(Nc3ccc4[nH]ncc4c3)c3ccccc3n2)c1 [KD025]	55.7 nM	42.8 nM	> 5000 nM	440 nM	> 5000 nM	> 5000 nM	21.7	24.2	0	4.5	0	0	2.6	18.9	13	3	1.6	0	5.4	7.5
Cc1cn(-c2cc(NC(=O)c3ccc(C)c(Nc4nccc(-c5cccnc5)n4)c3)cc(C(F)(F)F)c2)cn1 [Nilotinib]	869 nM	270 nM	940 nM	266 nM	> 10000 nM	> 10000 nM	10.9	16.7	9.5	15.1	0	0	0	12.4	8.5	2.1	0	0	0	0.8
COc1ncc(-c2ccc3nccc(-c4ccnnc4)c3c2)cc1NS(=O)(=O)c1ccc(F)cc1F [Omipalisib]	5.5 nM	4 nM	7.3 nM	5.2 nM	5.5 nM	4.4 nM	16.9	17.5	24.1	27.3	14.9	19	16.9	15.3	17.9	14.7	16.3	9.5	15.5	13.8
